Series [1] deals with T1, ABCG2 (Homo sapiens, UniProt Q9UNQ0).
T1 sequence (Q9UNQ0 1-655): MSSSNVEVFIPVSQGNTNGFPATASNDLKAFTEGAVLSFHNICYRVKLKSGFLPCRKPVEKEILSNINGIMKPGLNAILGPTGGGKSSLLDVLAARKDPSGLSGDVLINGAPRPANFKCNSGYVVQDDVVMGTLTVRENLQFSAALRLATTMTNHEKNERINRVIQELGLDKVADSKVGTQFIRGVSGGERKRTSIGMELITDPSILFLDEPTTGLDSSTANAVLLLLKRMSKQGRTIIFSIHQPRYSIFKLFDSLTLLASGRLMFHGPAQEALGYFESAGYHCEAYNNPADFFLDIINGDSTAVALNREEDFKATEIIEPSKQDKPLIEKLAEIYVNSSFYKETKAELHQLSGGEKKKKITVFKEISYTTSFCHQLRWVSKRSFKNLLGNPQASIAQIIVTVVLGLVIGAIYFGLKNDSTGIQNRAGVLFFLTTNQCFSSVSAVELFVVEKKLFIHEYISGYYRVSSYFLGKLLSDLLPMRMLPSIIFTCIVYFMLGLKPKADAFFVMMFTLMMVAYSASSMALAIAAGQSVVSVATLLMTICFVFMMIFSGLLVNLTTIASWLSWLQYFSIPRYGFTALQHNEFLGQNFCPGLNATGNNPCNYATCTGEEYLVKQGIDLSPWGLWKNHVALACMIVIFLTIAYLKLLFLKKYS
Description: ATPase stimulation in ABCG2-overexpressing membrane vesicles. It is filed as biochemical. More on the design: ABCG2 membrane vesicles that overexpressed ABCG2.

For series [2], the target named is T1, ABCG2.

One may read the EC50 as the midpoint of the concentration-response curve. High values mean lower potency in that assay, low ones higher potency in that assay. Compound `COc1cc(N2CCC(N3CCN(C)CC3)CC2)ccc1Nc1ncc(Cl)c(Nc2ccccc2S(=O)(=O)C(C)C)n1` [NVP-TAE684] yielded an EC50 at ABCG2 [1] of 91 nM. Consider `O=C1c2c(O)ccc(O)c2C(=O)c2c(NCCNCCO)ccc(NCCNCCO)c21` [Mitoxantrone], for which the “[3H]-mitoxantrone accumulation and efflux in NCI-H460/MX20 versus parental NCI-H” value at ABCG2 [2] is “NVP-TAE684 significantly reduced the extrusion of [^3H]-mitoxantrone in NCI-H460/MX20 cells”.

(Values after paper PMC7056829, “Reversal Effect of ALK Inhibitor NVP-TAE684 on ABCG2-Overexpressing Cancer Cells” (Frontiers in Oncology, 2020).)
